From PubChem BioAssay (NCI)
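Cells were grown in 96-well plates and exposed to each compound for 48 hours at five concentrations; endpoints were interpolated linearly between bracketing concentrations, or set to the highest concentration if not reached. GI50 is the concentration that inhibits growth by half. TGI: concentration producing complete growth inhibition.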

Experiments:
Assay in all cases: NCI tumour cell line growth inhibition, 48 h
SN12C renal = test system: SN12C renal
NCI-H226 lung = test system: NCI-H226 lung
RXF 393 renal = test system: RXF 393 renal
OVCAR-3 ovarian = test system: OVCAR-3 ovarian
NCI-H23 lung = test system: NCI-H23 lung
T-47D breast = test system: T-47D breast
HCC-2998 colon = test system: HCC-2998 colon
SK-MEL-5 melanoma = test system: SK-MEL-5 melanoma
HS 578T breast = test system: HS 578T breast
SF-268 CNS = test system: SF-268 CNS
786-0 renal = test system: 786-0 renal
LOX IMVI melanoma = test system: LOX IMVI melanoma
SF-539 CNS = test system: SF-539 CNS
PC-3 prostate = test system: PC-3 prostate
SW-620 colon = test system: SW-620 colon
KM12 colon = test system: KM12 colon
A549 NSCLC = test system: A549 NSCLC
DU-145 prostate = test system: DU-145 prostate
UACC-62 melanoma = test system: UACC-62 melanoma
SK-MEL-28 melanoma = test system: SK-MEL-28 melanoma
OVCAR-5 ovarian = test system: OVCAR-5 ovarian
BT-549 breast = test system: BT-549 breast
SNB-75 CNS = test system: SNB-75 CNS
M14 melanoma = test system: M14 melanoma
MALME-3M melanoma = test system: MALME-3M melanoma
TK-10 renal = test system: TK-10 renal
HL-60(TB) leukemia = test system: HL-60(TB) leukemia
NCI-H522 lung = test system: NCI-H522 lung
MOLT-4 leukemia = test system: MOLT-4 leukemia
HOP-92 NSCLC = test system: HOP-92 NSCLC
HCT-15 colon = test system: HCT-15 colon
OVCAR-4 ovarian = test system: OVCAR-4 ovarian
CAKI-1 renal = test system: CAKI-1 renal
IGROV1 ovarian = test system: IGROV1 ovarian
SNB-19 CNS = test system: SNB-19 CNS
RPMI-8226 leukemia = test system: RPMI-8226 leukemia
ACHN renal = test system: ACHN renal
MCF7 breast = test system: MCF7 breast
MDA-MB-435 = test system: MDA-MB-435
HT29 colon = test system: HT29 colon
MDA-MB-468 breast = test system: MDA-MB-468 breast
HOP-62 NSCLC = test system: HOP-62 NSCLC
EKVX NSCLC = test system: EKVX NSCLC
NCI/ADR-RES ovarian = test system: NCI/ADR-RES ovarian
UACC-257 melanoma = test system: UACC-257 melanoma
HCT-116 colon = test system: HCT-116 colon
A498 renal = test system: A498 renal
OVCAR-8 ovarian = test system: OVCAR-8 ovarian
NCI-H460 lung = test system: NCI-H460 lung
SK-OV-3 ovarian = test system: SK-OV-3 ovarian
K-562 leukemia = test system: K-562 leukemia
U251 CNS = test system: U251 CNS
SF-295 CNS = test system: SF-295 CNS
COLO 205 colon = test system: COLO 205 colon
CCRF-CEM leukemia = test system: CCRF-CEM leukemia
SK-MEL-2 melanoma = test system: SK-MEL-2 melanoma

## CCCCCCCCCCCCCCCCCCCC(=O)NCCc1c[nH]c2ccc(OC(=O)CCCC(=O)OCCOOCCOOCCOOCCOOCCOOCCOOCCOOCCOOCCOOCCOOCCOOCCOC)cc12
SN12C renal
  GI50: 12.6 µM
  TGI: 33.2 µM
NCI-H226 lung
  GI50: 14 µM
  TGI: 33.1 µM
RXF 393 renal
  GI50: 18.9 µM
  TGI: 39.2 µM
OVCAR-3 ovarian
  GI50: 10.7 µM
  TGI: 25.6 µM
NCI-H23 lung
  GI50: 18.9 µM
  TGI: 42.4 µM
T-47D breast
  GI50: 14.9 µM
  TGI: > 100 µM
HCC-2998 colon
  GI50: 44.7 µM
  TGI: > 100 µM
SK-MEL-5 melanoma
  GI50: 40.8 µM
  TGI: > 100 µM
HS 578T breast
  GI50: 38.7 µM
  TGI: > 100 µM
SF-268 CNS
  GI50: 15.2 µM
  TGI: 47.1 µM
786-0 renal
  GI50: > 100 µM
  TGI: > 100 µM
LOX IMVI melanoma
  GI50: 13.4 µM
  TGI: 33.1 µM
SF-539 CNS
  GI50: 11 µM
  TGI: 25.3 µM
PC-3 prostate
  GI50: 11.6 µM
  TGI: 49.5 µM
SW-620 colon
  GI50: 35.5 µM
  TGI: > 100 µM
KM12 colon
  GI50: 17.5 µM
  TGI: 52.6 µM
A549 NSCLC
  GI50: 21.7 µM
  TGI: 62.3 µM
DU-145 prostate
  GI50: 24.8 µM
  TGI: > 100 µM
UACC-62 melanoma
  GI50: 34.8 µM
  TGI: > 100 µM
SK-MEL-28 melanoma
  GI50: > 100 µM
  TGI: > 100 µM
OVCAR-5 ovarian
  GI50: 68 µM
  TGI: > 100 µM
BT-549 breast
  GI50: 4.15 µM
  TGI: 14 µM
SNB-75 CNS
  GI50: > 100 µM
  TGI: > 100 µM
M14 melanoma
  GI50: 29 µM
  TGI: > 100 µM
MALME-3M melanoma
  GI50: 54.3 µM
  TGI: > 100 µM
TK-10 renal
  GI50: > 100 µM
  TGI: > 100 µM
HL-60(TB) leukemia
  GI50: 2.53 µM
  TGI: 10.3 µM
NCI-H522 lung
  GI50: 2.7 µM
  TGI: 9.36 µM
MOLT-4 leukemia
  GI50: 4.61 µM
  TGI: 23 µM
HOP-92 NSCLC
  GI50: 18.6 µM
  TGI: 44.8 µM
HCT-15 colon
  GI50: 31 µM
  TGI: > 100 µM
OVCAR-4 ovarian
  GI50: 20.8 µM
  TGI: 95.1 µM
CAKI-1 renal
  GI50: 34 µM
  TGI: > 100 µM
IGROV1 ovarian
  GI50: 16.2 µM
  TGI: 38.9 µM
SNB-19 CNS
  GI50: 22.4 µM
  TGI: 62.8 µM
RPMI-8226 leukemia
  GI50: 3.22 µM
  TGI: 26.5 µM
ACHN renal
  GI50: 25.2 µM
  TGI: > 100 µM
MCF7 breast
  GI50: 24.1 µM
  TGI: > 100 µM
MDA-MB-435
  GI50: 41.2 µM
  TGI: > 100 µM
HT29 colon
  GI50: 32.9 µM
  TGI: > 100 µM
MDA-MB-468 breast
  GI50: 29.6 µM
  TGI: > 100 µM
HOP-62 NSCLC
  GI50: 26.7 µM
  TGI: > 100 µM
EKVX NSCLC
  GI50: 26.9 µM
  TGI: > 100 µM
NCI/ADR-RES ovarian
  GI50: 21.8 µM
  TGI: 72 µM
UACC-257 melanoma
  GI50: > 100 µM
  TGI: > 100 µM
HCT-116 colon
  GI50: 30.7 µM
  TGI: > 100 µM
A498 renal
  GI50: > 100 µM
  TGI: > 100 µM
OVCAR-8 ovarian
  GI50: 16 µM
  TGI: 38.5 µM
NCI-H460 lung
  GI50: 27.9 µM
  TGI: > 100 µM
SK-OV-3 ovarian
  GI50: > 100 µM
  TGI: > 100 µM
K-562 leukemia
  GI50: 5.59 µM
  TGI: 26.4 µM
U251 CNS
  GI50: 17.1 µM
  TGI: 33.9 µM
SF-295 CNS
  GI50: 15.7 µM
  TGI: 31.6 µM
COLO 205 colon
  GI50: > 100 µM
  TGI: > 100 µM
CCRF-CEM leukemia
  GI50: 0.769 µM
  TGI: 8.4 µM
SK-MEL-2 melanoma
  GI50: 26.1 µM
  TGI: > 100 µM

## Cc1cc(N2CCSCC2)nc(NC2CCCC(Nc3ccnc4cc(Cl)ccc34)C2)n1 (stereo not given)
MDA-MB-468 breast
  GI50: 1.58 µM
  TGI: 3.35 µM

## COc1cccc(NC(=O)c2sc3nc4c(cc3c2N)C(=O)CCC4)c1
MDA-MB-468 breast
  GI50: 0.0467 µM
  TGI: > 100 µM

## COc1cc(Nc2nc3ccccc3cc2C(=O)Nc2ccc(F)c(F)c2)cc(OC)c1OC
MDA-MB-468 breast
  GI50: 2.01 µM
  TGI: 6.58 µM

## COc1ccccc1CNCCCN1C(=O)c2ccc3c4c(ccc(c24)C1=O)C(=O)N(CCCCNCCCN)C3=O
MDA-MB-468 breast
  GI50: 0.267 µM
  TGI: 0.835 µM

## O=C(N/N=C/c1ccc([N+](=O)[O-])s1)c1[nH]c2ccc(Br)cc2c1-c1ccccc1
MDA-MB-468 breast
  GI50: 0.731 µM
  TGI: 22.2 µM

## O=C(/C=C/c1ccccc1)n1c(-c2ccc(Cl)cc2)nc2ccccc21
MDA-MB-468 breast
  GI50: 1.52 µM
  TGI: 4.32 µM

## Cc1cc(CC(C)CC(C)(C)C)n(O)c(=O)c1 (stereo not given) (tested in a mixture with another compound)
MDA-MB-468 breast
  GI50: 0.273 µM
  TGI: 1.06 µM

## C=C1CCC2C(C)(COC(=O)CC)C(OC(=O)CC)CCC2(C)C1C/C=C1/C(=O)OCC1OC(=O)CC (stereo not given)
MDA-MB-468 breast
  GI50: 1.74 µM
  TGI: 3.4 µM

## Cc1nc(N2CCC3(CC2)CO[C@@H](C)[C@H]3N)c(CO)nc1Sc1ccnc(N)c1Cl
MDA-MB-468 breast
  GI50: 0.228 µM
  TGI: 4.86 µM
